Here are results for one molecule from US20060141044A1, “Pharmaceutical compositions based on diclofenac derivate” (priority 2003, published 2006).

A short description of the series: Aqueous solubility / Biopharmaceutical Classification System classification. The series is classed as physicochemical. The text has this:
2-[2-(nitrooxy)ethoxy]ethyl {2-[(2,6-dichlorophenyl)amino]phenyl}acetate is a lipophilic drug with poor aqueous solubility and a low melting point. Said drug can be classified into class 2 according to the Biopharmaceutical Classification System proposed by Amidon et al. (Pharm. Res. 12 (1995) pp. 413420). Compounds of this class are characterised by their low aqueous solubility but reasonably well permeability. A biopharmaceutical problem with these drugs is that their absorption from the gastro-intestinal tract (GIT) may be dissolution rate limited, resulting in poor bioavailibility upon oral administration. One object of the invention is to provide an oral drug delivery composition with satisfactory bioavailability.

As for `O=C(Cc1ccccc1Nc1c(Cl)cccc1Cl)OCCOCCO[N+](=O)[O-]` [2-[2-(nitrooxy)ethoxy]ethyl {2-[(2,6-dichlorophenyl)amino]phenyl}acetate], where the note is “qualitative statement”, the aqueous solubility entry is on record as “poor”. Also, for the setting “system proposed by Amidon et al.”, the “class according to the Biopharmaceutical Classification System” value is “class 2”.
